Reference: patent publication US20080213356A1, “Pharmaceutical Composition Containing Hmg-Coa Reductase Inhibitor And Method For The Preparation Thereof” (PHARMATHEN S.A., priority 2005, published 2008)
Where a name gives a salt, the structure may show the parent alone.

Test: Flowability and compressibility, Carr's Index
Assay type: physicochemical
Conditions: pure pharmaceutical substance
Excerpt: However, when Dimethicone was incorporated according to the present invention, a decrease of 40-50% of the Carr Index was observed, which indicates an improvement of the flow properties of Fluvastatin and Atorvastatin and therefore the use of a direct compression for the final formulation.

mean Carr's Index: 24-25%
SMILES: CC(C)c1c(C(=O)Nc2ccccc2)c(-c2ccccc2)c(-c2ccc(F)cc2)n1CC[C@@H](O)C[C@@H](O)CC(=O)O (relative stereo) [Atorvastatin, [R—(R*,R*)]-2-(4-fluorophenyl)-b,d-dihydroxy-5-(1-methylethyl)-3-phenyl-4 [(phenylamino)carbonyl]-1H-pyrrole-1-heptanoic acid, calcium salt (2:1) trihydrate]
